Results published in US12678419B2, “Compounds” (Sitryx Therapeutics Limited, priority 2020, dated 2026).
pIC50: −log10 of the molar value.

Key:
[1] = test system: NRF2 (nuclear factor erythroid 2-related factor 2); experiment: NRF2 +/-GSH activation assay (DiscoverX PathHunter NRF2 translocation kit, U2OS cells); format: cell-based
mouse hepatocytes = experiment: Hepatocyte stability assay, mouse; format: in vitro ADME; details: 10 μM compound
Source text: (§1) Defrosted cryo-preserved hepatocytes (viability >70%) were used to determine the metabolic stability of a compound via calculation of intrinsic clearance (Clint; a measure of the removal of a compound from the liver in the absence of blood flow and cell binding). Clearance data are particularly important for in vitro work as they can be used in combination with in vivo data to predict the half-life and oral bioavailability of a drug.
(§2) The metabolic stability in hepatocytes assay involves a time-dependent reaction using both positive and negative controls. The cells were pre-incubated at 37° C. and spiked with test compound (and positive control); samples were taken at pre-determined time intervals were analysed to monitor the change in concentration of the initial drug compound over 60 minutes. A buffer incubation reaction (with no hepatocytes present) acted as a negative control and two cocktail solutions, containing compounds with known high and low clearance values (verapamil/7-hydroxycoumarin and propranolol/diltiazem), acted as positive controls. • 1. The assay was run with a cell concentration of 0.5×10^6 cells/mL in Leibovitz buffer. • 2. All compounds and controls were run in duplicate. • 3. Compound concentration was 10 μM. • 4. All compounds and controls were incubated with both cells and buffer to show turnover was due to hepatic metabolism. • 5. All wells on the incubation plate had 326.7 μL of either cells or buffer added. • 6. Prior to assay, cell and buffer-only incubation plates were preincubated for 10 mins at 37° C. • 7. The assay was initiated by adding compounds, 3.3 μL of 1 mM in 10% DMSO-90% Buffer; final DMSO concentration was 0.1%. • 8. Samples were taken at regular timepoints (0, 5, 10, 20, 40, 60 min) until 60 mins. • 9. Sample volume was 40 μL and was added to 160 μL of crash solvent (acetonitrile with internal standard) and stored on ice. • 10. At the end of the assay, the crash plates were centrifuged at 3500 rpm for 20 mins at 4° C. • 11. 80 μL of clear supernatant was removed and mixed with 80 μL of deionised water before being analysed by LC-MS/MS.
(§3) Raw LC-MS/MS data was exported to, and analysed in, Microsoft Excel for determination of intrinsic clearance. The percentage remaining of a compound was monitored using the peak area of the initial concentration as 100%. Intrinsic clearance and half-life values were calculated using a graph of the natural log of percentage remaining versus the time of reaction in minutes. Half-life (min) and intrinsic clearance (Clint in μL min^−1 10^−6 cells) values were calculated using the gradient of the graph (the elimination rate constant, k) and Equations 1 and 2.

human hepatocytes = experiment: Hepatocyte stability assay, human; format: in vitro ADME; details: 10 μM compound
Source text: as §1, §2, §3

[2] = test system: IL-1β cytokine output from THP-1s; experiment: THP-1 AlphaLISA IL-1β cytokine assay; format: cell-based
Procedure: The cytokine inhibition profiles of compounds of formula (I) were determined in a differentiated THP-1 cell assay. All assays were performed in RPMI-1640 growth medium (Gibco), supplemented with 10% fetal bovine serum (FBS; Gibco), 1% penicillin-streptomycin and 1% sodium pyruvate unless specified otherwise. The IL-1β and IL-6 cytokine inhibition assays were each run in a background of differentiated THP-1 cells as described below. All reagents described were from Sigma-Aldrich unless specified otherwise. Compounds were prepared as 10 mM DMSO stocks.
THP-1 cells were expanded as a suspension up to 80% confluence in appropriate growth medium. Cells were harvested, suspended, and treated with an appropriate concentration of phorbol 12-myristate 13-acetate (PMA) over a 72 hr period (37° C./5% CO2).
Following 72 hrs of THP-1 cell incubation, cellular medium was removed and replaced with fresh growth media containing 1% of FBS. Working concentrations of compounds were prepared separately in 10% FBS treated growth medium and pre-incubated with the cells for 30 minutes (37° C./5% CO2). Following the 30 minute compound pre-incubation, THP-1s were treated with an appropriate concentration of LPS and the THP-1s were subsequently incubated for a 24 hr period (37° C./5% CO2). An appropriate final concentration of Nigericin was then dispensed into the THP-1 plates and incubated for 1 hour (37° C./5% CO2) before THP-1 supernatants were harvested and collected in separate polypropylene 96-well holding plates.
Reagents from each of the IL-1β and IL-6 commercial kits (Perkin Elmer) were prepared and run according to the manufacturer's instructions. Subsequently, fluorescence signal detection in a microplate reader was measured (EnVision® Multilabel Reader, Perkin Elmer).
Percentage inhibition was calculated per cytokine by normalising the sample data to the high and low controls used within each plate (+/− LPS respectively). Percentage inhibition was then plotted against compound concentration and the 50% inhibitory concentration (IC50) was determined from the resultant concentration-response curve.

[3] = Homo sapiens, THP-1, differentiated THP-1 cells, LPS then nigericin, Table 1
[4] = Homo sapiens, THP-1, differentiated THP-1 cells, Table 2, compounds of formula (XVI)
[5] = differentiated THP-1 cells, Table 2, compounds of formula (XVI)
[6] = differentiated THP-1 cells, LPS then nigericin, Table 1

Structure (SMILES) | Clint (μL min^−1 10^−6 cells) (mouse hepatocytes) | T½ (mouse hepatocytes) | Clint (μL min^−1 10^−6 cells) (human hepatocytes) | T½ (human hepatocytes) | pIC50 [2, 6] | also measured
C=C(CC(=O)OC1CCc2cc(Br)c(OC)cc21)C(=O)OCC(=O)O (single isomer, unassigned; enantiomer 1) [Example 12, 2-((4-((5-bromo-6-methoxy-2,3-dihydro-1H-inden-1-yl)oxy)-2-methylene-4-oxobutanoyl)oxy)acetic acid (Enantiomer 1)] |  |  |  |  |  | pIC50 [2, 3]: 4.33
C=C(CC(=O)OC1CCc2c(Cl)cc(Cl)cc21)C(=O)O (single isomer, unassigned; enantiomer 1) [Intermediate 25, 4-((4,6-dichloro-2,3-dihydro-1H-inden-1-yl)oxy)-2-methylene-4-oxobutanoic acid Enantiomer 1] |  |  |  |  |  | pIC50 [2, 4]: 4.36
C=C(CC(=O)OC1CCCc2cc(C(F)(F)F)ccc21)C(=O)O (single isomer, unassigned; enantiomer 1) [Intermediate 40, 2-methylene-4-oxo-4-((6-(trifluoromethyl)-1,2,3,4-tetrahydronaphthalen-1-yl)oxy)butanoic acid (Enantiomer 1)] |  |  |  |  |  | pIC50 [2, 5]: 5.28
C=C(CC(=O)OC1CCCc2cc(C(F)(F)F)ccc21)C(=O)O (single isomer, unassigned; enantiomer 2) [Intermediate 41, 2-methylene-4-oxo-4-((6-(trifluoromethyl)-1,2,3,4-tetrahydronaphthalen-1-yl)oxy)butanoic acid (Enantiomer 2)] |  |  |  |  |  | pIC50 [2, 5]: 4.50
C=C(CC(=O)OCCCCCCCC)C(=O)O [4-octyl itaconate, reference compound] | 351 μL min^−1 10^−6 cells | 4 min | 401 μL min^−1 10^−6 cells | 4 min |  | 
C=C(CC(=O)OC1CCc2cc(C(F)(F)F)ccc21)C(=O)O (centres unmarked) [Intermediate 37, 2-methylene-4-oxo-4-((5-(trifluoromethyl)-2,3-dihydro-1H-inden-1-yl)oxy)butanoic acid] |  |  |  |  |  | pIC50 [2, 4]: 4.74

The next lines start with results.

Clint (μL min^−1 10^−6 cells) (mouse hepatocytes) | T½ (mouse hepatocytes) | Clint (μL min^−1 10^−6 cells) (human hepatocytes) | T½ (human hepatocytes) | pIC50 [2, 6] | Structure (SMILES) | also measured
316 μL min^−1 10^−6 cells | 4 min | 15 μL min^−1 10^−6 cells | 106 min |  | C=C(CC(=O)OC1CCc2cc(Cl)cc(Cl)c21)C(=O)OCC(=O)O (single isomer, unassigned; enantiomer 1) [Example 8, 2-((4-((5,7-dichloro-2,3-dihydro-1H-inden-1-yl)oxy)-2-methylene-4-oxobutanoyl)oxy)acetic acid (Enantiomer 1)] | EC50 ([1]; +GSH): 16.4 µM; Emax (%) +GSH ([1]; +GSH, normalised to dimethyl fumarate high control): 264%; EC50 ([1]; −GSH): 4.8 µM; Emax (%) −GSH ([1]; −GSH, normalised to dimethyl fumarate high control): 268%; pIC50 [2, 3]: 4.97
311 μL min^−1 10^−6 cells | 5 min | 24 μL min^−1 10^−6 cells | 62 min | 5.21 | C=C(CC(=O)OC1CCc2cc(Cl)cc(Cl)c2C1)C(=O)OCC(=O)O (single isomer, unassigned; enantiomer 2) [Example 11, 2-((4-((6,8-dichloro-1,2,3,4-tetrahydronaphthalen-2-yl)oxy)-2-methylene-4-oxobutanoyl)oxy)acetic acid (Enantiomer 2)] | 
 |  |  |  | 4.46 | C=C(CC(=O)OC1CCc2cc(Br)c(OC)cc21)C(=O)OCC(=O)O (single isomer, unassigned; enantiomer 2) [Example 13, 2-((4-((5-bromo-6-methoxy-2,3-dihydro-1H-inden-1-yl)oxy)-2-methylene-4-oxobutanoyl)oxy)acetic acid (Enantiomer 2)] | 
>460 μL min^−1 10^−6 cells | <3 min | 15 μL min^−1 10^−6 cells | 95 min | 5.59 | C=C(CC(=O)OC1CCc2c(Br)cc(F)cc21)C(=O)OCC(=O)O (single isomer, unassigned; enantiomer 2) [Example 16, 2-((4-((4-bromo-6-fluoro-2,3-dihydro-1H-inden-1-yl)oxy)-2-methylene-4-oxobutanoyl)oxy)acetic acid (Enantiomer 2)] | 
